Reference: patent US20260226043A1, “POLYMORPHS OF THE MALEIC ACID SALT OF LINAPRAZAN GLURATE” (Cinclus Pharma Holding AB (publ), priority 2023, published 2026)
“Also recorded” adds a separate entry of the source. Read-outs that look alike come from different tables or passages of the source. Marks after values point to notes of the source that are not given here.

How the values were obtained:
[1] = Thermogravimetric analysis (TGA)
Experimental: Analyses were performed on a PerkinElmer TGA7 instrument. A few mg of sample was gently charged into open Pt-pans and analysed by weight in a flow of dry nitrogen gas (20 mL/min), to ensure an inert atmosphere. The sample was scanned from 25 to 200° C. using a continuous scan speed of 10° C./min. The weight loss was calculated from 25° C. up to 145° C.

[2] = Gravimetric/dynamic vapour sorption (GVS/DVS)
Experimental: Analyses were performed on an SMS DVS-1 instrument. A few mg of the substance was added into an Al pan and exposed to stepwise RH changes during two consecutive cycles according to 20-80-0-90-0%, in steps of 10% RH, using open loop mode. The experiments were performed using a gas flow rate of 200 mL/min and at 25° C. The dm/dt criteria applied was 0.001 weight-%/min during a 5-minute window, with a maximum allowed time of 360 minutes and a minimum allowed time of 10 minutes for all steps.
The hygroscopicity of Form 1 (obtained from the synthesis described below in example 1) was investigated using GVS at 25° C.

[3] = Slurry experiments (solid form stability, XRPD); format: physicochemical
Experimental: Slurry experiments were performed in various solvents. The samples were slurried for different periods of time depending on temperature. […] The water-containing slurries were performed to investigate possible hydrate formation.
Details of all slurry experiments performed, including solvent(s) used, total concentration and final form by XRPD, are given in Table 1.
Approximately 30 mg of linaprazan glurate maleic acid salt was used for each experiment, together with 20 different solvents (pure and binary solvents) at room temperature, at 4° C., at 40° C., and at 60° C., unless indicated otherwise. […] The solid phase was isolated and analysed with XRPD. The sample run at fridge temperature (ca 4° C.) was analysed after 26 and 53 days of slurry. The samples run at RT were analysed after 26 days of slurry. The samples run at 40° C. were analysed after 6 and 12 days of slurry. The samples run at 60° C. were analysed after 1 day of slurry.

[4] = free base Form A; cited from earlier work
[5] = cited from earlier work
intragastric acidity = conditions: cited from earlier work
[6] = cited from earlier work; remark: listed apart in the source
clinical = conditions: human, in vivo
Experimental: Linaprazan glurate is a prodrug of linaprazan, which was disclosed in WO 99/55706 and previously studied in Phase I and II studies. […] A clinical Phase I study has shown that administration of a single dose of linaprazan glurate can maintain the intragastric acidity above pH 4 for 24 hours. Linaprazan glurate is therefore tailored for patients with severe erosive gastroesophageal reflux disease (eGERD).
It is estimated that this requires a minimal plasma concentration (Cmin) of linaprazan of at least about 240 nmol/L after 22 hours. At such doses, a once daily oral administration of the formulation would be sufficient. In some embodiments, therefore, a single unit dose of a pharmaceutical composition of linaprazan glurate provides a Cmin of linaprazan in a human of at least about 240 nmol/L after 22 hours following oral administration of the pharmaceutical composition to said human. In other embodiments, a daily administration of two unit doses of a pharmaceutical composition of linaprazan glurate provides a Cmin of linaprazan in a human of at least about 240 nmol/L after 10 hours following oral administration of the last unit dose of the pharmaceutical composition to said human.

gastric acid = conditions: Phase I and II studies; cited from earlier work
[7] = Phase I and II studies; cited from earlier work

With `Cc1cccc(C)c1CNc1cc(C(=O)NCCOC(=O)CCCC(=O)O)cn2c(C)c(C)nc12.O=C(O)/C=C\C(=O)O` [Form 1, maleic acid salt of 5-{2-[({8-[(2,6-dimethylbenzyl)amino]-2,3-dimethylimidazo[1,2-a]pyridine-6-yl}carbonyl)-amino]ethoxy}-5-oxopentanoic acid] the “weight loss (TGA)” value [1] was 0.17%, the hygroscopicity classification ([2]; GVS/DVS at 25° C.) was “slightly hygroscopic; also recorded: low hygroscopicity” and the water uptake ([2]; at 80% RH, dynamic vapour sorption) was “about 0.45%”. The uptake of water ([2]; humidity range 0 to 80% RH, GVS at 25° C.) was roughly 0.4%, the Solid state form ([3]; slurry in 1,4-dioxane, 63 mg/mL, 40° C., 6 and 12 days) was “Form 1” and the Solid state form ([3]; slurry in 1,4-dioxane:DMA 9:1, 103 mg/mL, RT, 26 days) was “Form 1”. For the same compound, the Solid state form ([3]; slurry in 2-propanol, 56 mg/mL, 40° C., 6 and 12 days) was “Form 1 + Crystalline”, the Solid state form ([3]; slurry in 2-propanol:DMA 9:1, 91 mg/mL, RT, 26 days) was “Form 1” and the Solid state form ([3]; slurry in DMA, 890 mg/mL, RT, 26 days) was “Crystalline base form”. For the same compound, the Solid state form ([3]; slurry in DMA, 1369 mg/mL, 40° C., 6 and 12 days) was “Form 1 + Crystalline”, the Solid state form ([3]; slurry in EtOAc, 36 mg/mL, 40° C., 6 and 12 days) was “Form 1” and the Solid state form ([3]; slurry in EtOAc:DMA 9:1, 89 mg/mL, RT, 26 days) was “Form 1 + Crystalline”. For the same compound, the Solid state form ([3]; slurry in EtOH, 61 mg/mL, 40° C., 6 and 12 days) was “Form 1 + Crystalline”, the Solid state form ([3]; slurry in EtOH, 61 mg/mL, RT, 26 days) was “Form 1” and the Solid state form ([3]; slurry in MIBK, 53 mg/mL, 40° C., 6 and 12 days) was “Form 1”. The Solid state form ([3]; slurry in MIBK, 62 mg/mL, 60° C., 1 day) was “Form 1”, the Solid state form ([3]; slurry in MIBK:DMA 9:1, 84 mg/mL, RT, 26 days) was “Form 1” and the Solid state form ([3]; slurry in MTBE, 68 mg/mL, 40° C., 6 and 12 days) was “Form 1 + MTBE solvate”. For the same compound, the Solid state form ([3]; slurry in MTBE:DMA 9:1, 99 mg/mL, RT, 26 days, analysed also after 53 days) was “Form 1 + MTBE solvate*”, the Solid state form ([3]; slurry in MeCN, 52 mg/mL, 40° C., 6 and 12 days) was “Form 1” and the Solid state form ([3]; slurry in MeCN, 63 mg/mL, 60° C., 1 day) was “Form 1”. For the same compound, the Solid state form ([3]; slurry in MeCN:DMA 9:1, 85 mg/mL, RT, 26 days) was “Form 1 + Crystalline”, the Solid state form ([3]; slurry in MeOH, 51 mg/mL, 40° C., 6 and 12 days) was “Crystalline base form” and the Solid state form ([3]; slurry in MeOH, 55 mg/mL, RT, 26 days) was “Form 1 + Crystalline”. For the same compound, the Solid state form ([3]; slurry in MeOH:water 4:1, 52 mg/mL, ca 4° C., 26 and 53 days) was “Form 1 + Crystalline”, the Solid state form ([3]; slurry in MeOH:water 4:1, 58 mg/mL, RT, 26 days) was “Crystalline base form” and the Solid state form ([3]; slurry in THF, 53 mg/mL, 40° C., 6 and 12 days) was “Form 1 + Crystalline”. The Solid state form ([3]; slurry in THF, 63 mg/mL, 60° C., 1 day) was “Form 1”, the Solid state form ([3]; slurry in THF:DMA 9:1, 93 mg/mL, RT, 26 days) was “Form 1 + Crystalline” and the Solid state form ([3]; slurry in acetone, 29 mg/mL, RT, analysed after 21 days) was “Form 1**”. The Solid state form ([3]; slurry in benzyl alcohol, 332 mg/mL, RT, analysed after 21 days) was “Form 1**”.
In the case of `Cc1cccc(C)c1CNc1cc(C(=O)NCCOC(=O)CCCC(=O)O)cn2c(C)c(C)nc12` [Form A], the hygroscopicity [4] is given as “very low hygroscopicity”, the “physical and chemical stability” value [4] is given as “good physical and chemical stability” and the solubility in water ([5]; pH 1) is given as “only slightly soluble”. For the same compound, the solubility in water ([5]; pH 6.8) was “practically insoluble”.
For `Cc1cccc(C)c1CNc1cc(C(=O)NCCOC(=O)CCCC(=O)O)cn2c(C)c(C)nc12` [linaprazan glurate, 5-{2-[({8-[(2,6-dimethylbenzyl)amino]-2,3-dimethylimidazo[1,2-a]pyridine-6-yl}carbonyl)-amino]ethoxy}-5-oxopentanoic acid], the “control of the gastric acid production” value (intragastric acidity; compared to linaprazan) is given as “total control of the gastric acid production for a longer time”, the “intragastric acidity (pH) maintained” value (intragastric acidity; single dose, maintained for 24 hours, clinical Phase I study) is given as greater than 4 and the “plasma concentration of linaprazan glurate” value ([6]; after administration of linaprazan glurate) is given as “only very low and difficult to determine”. For the same compound, the “half-life in the body” value ([6]; compared to linaprazan) was “longer half-life in the body” and the metabolism ([6]; following absorption into the blood stream) was “quickly metabolized into linaprazan”.
In the case of `Cc1cccc(C)c1CNc1cc(C(=O)NCCO)cn2c(C)c(C)nc12` [linaprazan], the concentration at 22 h (clinical) is given as no less than 240 nM, the “duration of acid inhibition” value (gastric acid) is given as “too short duration of acid inhibition” and the “onset of action / effect” value (gastric acid) is given as “fast onset of action and full effect at first dose”. The “elimination from the body” value [7] was “quickly eliminated from the body” and the tolerability [7] was “well tolerated”.
